Measurements: patent US8247211B2, “Glycopeptide antibiotics” (American Cyanamid Company, priority 2001, dated 2012)
Values after ≈ are worked out from the molar mass of the structure shown.

Columns and labels:
Assay in all cases: In vitro antibacterial evaluation: minimum inhibitory concentration (MIC), broth dilution method
Assay type in all cases: cell-based
Escherichia coli = settings: 5×10^5 CFU/mL, 18 hours at 35° C.
Experimental: (§1) The minimum inhibitory concentration (MIC), the lowest concentration of the antibiotic which inhibits growth of the test organism, is determined by the broth dilution method using Muller-Hinton II […] (Baltimore Biological Laboratories) following the recommendations of the National Committee for Clinical Laboratory Standards [Methods for dilution antimicrobial susceptibility tests for bacteria that grow aerobically, approved standard M7-A2, National Committee for Clinical Laboratory Standards, Villanova, Pa].
(§2) An inoculum level of 5×10^5 CFU/mL, and a range of antibiotic concentrations (64-0.06 μg/mL) is used. […] The test organisms include a spectrum of Gram-positive bacteria comprised of Staphylococcus sp., Streptococcus sp. and Enterococcus sp. These organisms include recent clinical isolates that are resistant to methicillin, penicillin and/or vancomycin.

Staphylococcus sp. = settings: for MIC Staphylococcus aureus (ATCC 29213): strain ATCC 29213; for MIC Staphylococcus aureus (GC 1131): strain GC 1131; for MIC Staphylococcus aureus (GC 3051): strain GC 3051; for MIC Staphylococcus aureus (GC 3053): strain GC 3053; for MIC Staphylococcus aureus (GC 4541): strain GC 4541; for MIC Staphylococcus aureus (GC 4542): strain GC 4542; for MIC Staphylococcus aureus (GC 4544): strain GC 4544; for MIC Staphylococcus aureus (GC 4545): strain GC 4545
Experimental: as §1, §2

Streptococcus sp. = settings: broth dilution, 5×10^5 CFU/mL, 18 hours at 35° C.
Experimental: as §1, §2

Enterococcus sp. = settings: broth dilution, 5×10^5 CFU/mL, 18 hours at 35° C.
Experimental: as §1, §2

[1] = broth dilution, 5×10^5 CFU/mL, 18 hours at 35° C.
[2] = broth dilution, 18 hours at 35° C.

- MIC Escherichia coli (ATCC 25922) (Escherichia coli): 32 µg/mL (≈ 22 µM)
- MIC Escherichia coli (GC 4559) (Escherichia coli): 32 µg/mL (≈ 22 µM)
- MIC Escherichia coli (GC 4560) (Escherichia coli): 4 µg/mL (≈ 2.75 µM)
- MIC Coagulase Negative Staphylococcus (GC 4547) (Staphylococcus sp.; [1]): 4 µg/mL (≈ 2.75 µM)
- MIC Coagulase Negative Staphylococcus (GC 4548) (Staphylococcus sp.; [1]): 2 µg/mL (≈ 1.37 µM)
- MIC Coagulase Negative Staphylococcus (GC 4549) (Staphylococcus sp.; [1]): 2 µg/mL (≈ 1.37 µM)
- MIC Coagulase Negative Staphylococcus (GC 4551) (Staphylococcus sp.; [1]): 4 µg/mL (≈ 2.75 µM)
- MIC Coagulase Negative Staphylococcus (GC 6257) (Staphylococcus sp.; [1]): 2 µg/mL (≈ 1.37 µM)
- MIC Staphylococcus aureus-SMITH (GC 4543) (Staphylococcus sp.; [1]): 2 µg/mL (≈ 1.37 µM)
- MIC Staphylococcus aureus (ATCC 29213) (Staphylococcus sp.): 2 µg/mL (≈ 1.37 µM)
- MIC Staphylococcus aureus (ATCC 29213) (Staphylococcus sp.; [2]): 2 µg/mL (≈ 1.37 µM)
- MIC Staphylococcus aureus (GC 1131) (Staphylococcus sp.): 4 µg/mL (≈ 2.75 µM)
- MIC Staphylococcus aureus (GC 1131) (Staphylococcus sp.; [2]): 4 µg/mL (≈ 2.75 µM)
- MIC Staphylococcus aureus (GC 3051) (Staphylococcus sp.): 2 µg/mL (≈ 1.37 µM)
- MIC Staphylococcus aureus (GC 3051) (Staphylococcus sp.; [2]): 2 µg/mL (≈ 1.37 µM)
- MIC Staphylococcus aureus (GC 3053) (Staphylococcus sp.): 2 µg/mL (≈ 1.37 µM)
- MIC Staphylococcus aureus (GC 3053) (Staphylococcus sp.; [2]): 2 µg/mL (≈ 1.37 µM)
- MIC Staphylococcus aureus (GC 4541) (Staphylococcus sp.): 2 µg/mL (≈ 1.37 µM)
- MIC Staphylococcus aureus (GC 4541) (Staphylococcus sp.; [2]): 2 µg/mL (≈ 1.37 µM)
- MIC Staphylococcus aureus (GC 4542) (Staphylococcus sp.): 2 µg/mL (≈ 1.37 µM)
- MIC Staphylococcus aureus (GC 4542) (Staphylococcus sp.; [2]): 2 µg/mL (≈ 1.37 µM)
- MIC Staphylococcus aureus-SMITH (GC 4543) (Staphylococcus sp.; strain GC 4543, broth dilution, 18 hours at 35° C.): 2 µg/mL (≈ 1.37 µM)
- MIC Staphylococcus aureus (GC 4544) (Staphylococcus sp.): 4 µg/mL (≈ 2.75 µM)
- MIC Staphylococcus aureus (GC 4544) (Staphylococcus sp.; [2]): 4 µg/mL (≈ 2.75 µM)
- MIC Staphylococcus aureus (GC 4545) (Staphylococcus sp.): 2 µg/mL (≈ 1.37 µM)
- MIC Staphylococcus aureus (GC 4545) (Staphylococcus sp.; [2]): 2 µg/mL (≈ 1.37 µM)
- MIC Coagulase Negative Staphylococcus (GC 4547) (Staphylococcus sp.; strain GC 4547, broth dilution, 18 hours at 35° C.): 4 µg/mL (≈ 2.75 µM)
- MIC Coagulase Negative Staphylococcus (GC 4548) (Staphylococcus sp.; strain GC 4548, broth dilution, 18 hours at 35° C.): 2 µg/mL (≈ 1.37 µM)
- MIC Coagulase Negative Staphylococcus (GC 4549) (Staphylococcus sp.; strain GC 4549, broth dilution, 18 hours at 35° C.): 2 µg/mL (≈ 1.37 µM)
- MIC Coagulase Negative Staphylococcus (GC 4551) (Staphylococcus sp.; strain GC 4551, broth dilution, 18 hours at 35° C.): 4 µg/mL (≈ 2.75 µM)
- MIC Coagulase Negative Staphylococcus (GC 6257) (Staphylococcus sp.; strain GC 6257, broth dilution, 18 hours at 35° C.): 2 µg/mL (≈ 1.37 µM)
- MIC Streptococcus agalactiae (GC 4564) (Streptococcus sp.): 0.25 µg/mL (≈ 0.172 µM)
- MIC Streptococcus pneumoniae (GC 1894) (Streptococcus sp.): <0.06 µg/mL
- MIC Streptococcus pneumoniae (GC 4565) (Streptococcus sp.): 0.12 µg/mL (≈ 0.0824 µM)
- MIC Streptococcus pneumonine (ATCC 6301) (Streptococcus sp.): 0.25 µg/mL (≈ 0.172 µM)
- MIC Streptococcus pyogenes (GC 4563) (Streptococcus sp.): 0.5 µg/mL (≈ 0.344 µM)
- MIC Enterococccus avium (GC 4558) (Enterococcus sp.): 4 µg/mL (≈ 2.75 µM)
- MIC Enterococccus faecalis (ATCC 29212) (Enterococcus sp.): 4 µg/mL (≈ 2.75 µM)
- MIC Enterococccus faecalis (GC 2691) (Enterococcus sp.): 4 µg/mL (≈ 2.75 µM)
- MIC Enterococccus faecalis (GC 3059) (Enterococcus sp.): 4 µg/mL (≈ 2.75 µM)
- MIC Enterococccus faecalis (GC 4552) (Enterococcus sp.): 4 µg/mL (≈ 2.75 µM)
- MIC Enterococccus faecalis (GC 4553) (Enterococcus sp.): 4 µg/mL (≈ 2.75 µM)
- MIC Enterococccus faecalis (GC 4554) (Enterococcus sp.): 4 µg/mL (≈ 2.75 µM)
- MIC Enterococccus faecalis (GC 6189) (Enterococcus sp.): 4 µg/mL (≈ 2.75 µM)
- MIC Enterococccus faecium (GC 2243) (Enterococcus sp.): 4 µg/mL (≈ 2.75 µM)
- MIC Enterococccus faecium (GC 4556) (Enterococcus sp.): 4 µg/mL (≈ 2.75 µM)
- MIC Enterococccus faecium (GC 4557) (Enterococcus sp.): 4 µg/mL (≈ 2.75 µM)
- MIC Enterococcus faecalis (GC 2242) (Enterococcus sp.): 4 µg/mL (≈ 2.75 µM)
SMILES: CC(c1ccccc1)C1NC(=O)CNC(=O)C(CO)NC(=O)C(C(O)C2CNC(=N)N2C2OC(CO)C(O)C(O)C2O)NC(=O)C(C(O)C2CNC(=N)N2)NC(=O)C(Cc2ccc(OC3OC(CO)C(OC4OC(CO)C(O)C5OC(CC67CC8CC(CC(C8)C6)C7)OC45)C(O)C3O)cc2)NC1=O (centres unmarked) [Example 128]
- MIC Staphylococcus haemolyticus (GC 4546) (Staphylococcus sp.; [1]): 2 µg/mL (≈ 1.37 µM)
- MIC Staphylococcus haemolyticus (GC 4546) (Staphylococcus sp.; strain GC 4546, broth dilution, 18 hours at 35° C.): 2 µg/mL (≈ 1.37 µM)
